According to US8492385B2, “Crystalline modifications of N-alpha-(2,4,6-triisopropylphenylsulfonyl)-3-hydroxyamidino- (L)- phenylalanine 4-ethoxycarbonylpiperazide and/or salts thereof” (Wilex AG, priority 2004, dated 2013):

Columns and labels:
Format in all cases: physicochemical
[1] = Investigation of the hygroscopicity (storage at 85% relative humidity, TGA); settings: storage for 1 week/85% relative humidity
[2] = Investigation of the crystallinity by X-ray diffractometry; settings: salts suspended 7 days in a suitable solvent, filtered, dried at room temperature
Text: In a second step, the salts were suspended for 7 days in a suitable solvent, filtered and dried at room temperature.
Processes: X-ray diffractometry (XRD); microscopy

[3] = DSC and TGA thermograms of WX-671.1 (hydrogensulfate salt)
Protocol: In this example, thermograms were plotted by differential scanning calorimetry (DSC) and thermo-gravimetry (TGA). […] It decomposes from about 180° C. (exothermic peak in the DSC thermogram, mass loss in the TGA thermogram in the corresponding temperature range). The decomposition temperatures are strongly heating rate-dependent and were determined in the DSC calorimeter at a heating rate of 2 Kmin^−1. The DSC table measurements shown were recorded at a heating rate of […] is correspondingly recorded at higher temperatures.

[4] = Thermomicroscopy of WX-671.1
Protocol: Thermomicroscopic recordings of a sample of WX-671.1 were made (not shown). Agglomerates were observed which show no specific habit. The active compound decomposes with bubble formation from about 197° C. Differences to the decomposition temperature observed in the DSC calorimeter come about due to the different heating rates. WX-671.1 is obtained in nonspecific form from solvents.

[5] = Polymorphism screening / stability of the solid form (stirring in solvents, mechanical stress)

Molecule: Hydrochloride
- TGA (hygroscopicity) [1]: 7.5%
- TGA, kind of water uptake [1]: (adsorptive)
- XRD (crystallinity) [2]: completely amorphous

Molecule: Tartrate
- TGA (hygroscopicity) [1]: 10.5%
- TGA, kind of water uptake [1]: (adsorptive)
- XRD (crystallinity) [2]: completely amorphous

Molecule: CCOC(=O)N1CCN(C(=O)[C@H](Cc2cccc(C(N)=NO)c2)NS(=O)(=O)c2c(C(C)C)cc(C(C)C)cc2C(C)C)CC1 [WX-671.1, N-α-(2,4,6-triisopropylphenylsulfonyl)-3-hydroxyamidino-(L)-phenylalanine 4-ethoxycarbonylpiperazide]
- decomposition temperature ([3]; mesophase B): about 185 °C
- mass loss (TGA) ([3]; mesophase C, up to 175° C.): 4.5%
- mass loss (TGA) ([3]; modification A, at 150° C.): no significant mass loss
- TGA (hygroscopicity) [1]: 0.8%
- TGA, kind of water uptake [1]: (adsorptive)
- XRD (crystallinity) [2]: liquid crystalline
- decomposition with bubble formation, temperature [4]: about 197 °C
- change of form on stirring in water:ethanol (1:1) ([5]; mesophase B): does not change
- change of form due to mechanical stress ([5]; mesophase B, grinding in a mortar, compressing at 9 kbar): does not alter
- change of form on stirring in isopropanol ([5]; mesophase B, room temperature, one week): changes into modification A

Molecule: CCOC(=O)N1CCN(C(=O)[C@H](Cc2cccc(C(N)=NO)c2)NS(=O)(=O)c2c(C(C)C)cc(C(C)C)cc2C(C)C)CC1.O=S(=O)(O)O [WX-671.2, N-α-(2,4,6-triisopropylphenyl-sulfonyl)-3-hydroxyamidino-(L)-phenylalanine 4-ethoxy-carbonylpiperazide sulfate]
- thermodynamic stability of the form [5]: thermodynamically stable compound
